According to patent US4563527A, “Amidine compounds” (Torii & Co., Ltd., priority 1984, dated 1986):
pIC50: −log10 of the molar value.

Assays:
[1] = tested on: complement; experiment: Inhibition of complement mediated hemolysis; type: cell-based
Description: The complement mediated hemolysis is widely used as a means to determine the titration of complement. The principle of this method is based on the fact that hemolysis is caused by the activation of complement, when the latter is added to a complex (immune complex) of erythrocytes and the antibody thereof. The degree of hemolysis varies in proportion to the amount of complement added. Therefore, when a known amount of complement admixed with a C1 esterase inhibitor is used, the hemolysis must be suppressed in proportion to the inhibitory activity.
The anti-C1 esterase (C1r, C1s) activity was determined according to the method of Okamura et al. [K. Okamura, M. Muramatsu and B. Fujii, Biochem. Biophys. […] The figures in Table 2 have the following meanings: […]

[2] = molecular target: T1, C1s (Homo sapiens, UniProt P09871); experiment: Anti-C1s activity (hydrolysis of ATEE); type: biochemical; details: molar concentration inhibiting 50% of ATEE hydrolysis; read-out: ID50 C1s (Anti-C1 activity)
T1 sequence (P09871 438-688 limits assumed): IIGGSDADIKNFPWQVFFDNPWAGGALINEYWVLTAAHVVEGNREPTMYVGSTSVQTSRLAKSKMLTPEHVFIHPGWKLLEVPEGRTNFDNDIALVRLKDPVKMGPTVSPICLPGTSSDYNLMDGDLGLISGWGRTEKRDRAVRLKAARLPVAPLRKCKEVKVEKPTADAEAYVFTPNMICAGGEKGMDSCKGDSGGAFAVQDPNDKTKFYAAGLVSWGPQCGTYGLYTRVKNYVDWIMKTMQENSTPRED
T1 sequence (P09871 16-437 partner limits assumed): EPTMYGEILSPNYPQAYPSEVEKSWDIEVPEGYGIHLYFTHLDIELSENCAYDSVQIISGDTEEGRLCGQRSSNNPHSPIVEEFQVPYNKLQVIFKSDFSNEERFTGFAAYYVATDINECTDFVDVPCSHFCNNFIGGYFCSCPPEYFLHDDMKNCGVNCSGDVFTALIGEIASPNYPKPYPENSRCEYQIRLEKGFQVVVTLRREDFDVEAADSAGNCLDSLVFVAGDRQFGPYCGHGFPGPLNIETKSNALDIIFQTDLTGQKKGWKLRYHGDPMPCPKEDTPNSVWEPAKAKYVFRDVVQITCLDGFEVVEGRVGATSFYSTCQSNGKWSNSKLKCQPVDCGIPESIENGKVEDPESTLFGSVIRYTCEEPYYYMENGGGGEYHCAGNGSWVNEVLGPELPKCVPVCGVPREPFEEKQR
Description: The anti-C1 esterase (C1r, C1s) activity was determined according to the method of Okamura et al. [K. Okamura, M. Muramatsu and B. Fujii, Biochem. Biophys. Acta, 295, 252-257 (1973)]. The inhibition of complement mediated hemolysis was determined according to the method of Baker et al. [B. R. Baker and E. H. Erickson, J. Med. Chem. 12, 408-414 (1969)]. The figures in Table 2 have the following meanings:
C1s: Molar concentration of the test compound which inhibits 50% of the ability of C1s to hydrolyse ATEE (acetyltyrosin ethyl ester) (ID50).

[3] = tested on: Kallikrein; experiment: Anti-kallikrein activity (hydrolysis of TAME); type: biochemical; details: molar concentration inhibiting 50% of TAME hydrolysis; read-out: ID50 kallikrein
Description: (§1) The anti-trypsin, anti-plasmin, anti-kallikrein and anti-thrombin activities were determined according to the method of Muramatsu et al. [M. Muramatus, T. Onishi, S. Makino, Y. Hayashi and S. Fujii, J. of Biochem., 58, 214 (1965)]. The data summarized in Table 1 are expressed in terms of molar concentration (ID50) of the test compound which inhibits 50% of the activity of each enzyme to hydrolyze TAME (tosylalginine methyl ester). The compound No. corresponds to the compound number shown in Examples.

[4] = molecular target: T2, Trypsin (Bos taurus, UniProt P00760); experiment: Anti-trypsin activity (hydrolysis of TAME); type: biochemical
T2 sequence (P00760 24-246): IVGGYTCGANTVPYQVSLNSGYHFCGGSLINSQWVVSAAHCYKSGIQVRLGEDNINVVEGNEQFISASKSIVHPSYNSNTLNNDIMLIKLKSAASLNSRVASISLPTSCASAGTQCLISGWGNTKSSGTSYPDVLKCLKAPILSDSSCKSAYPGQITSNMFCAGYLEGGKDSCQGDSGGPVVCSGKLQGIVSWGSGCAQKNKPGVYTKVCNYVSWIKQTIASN
Description: as §1

[5] = molecular target: Thrombin (Homo sapiens, UniProt P00734); experiment: biochemical
[6] = tested on: Forssman shock; experiment: Forssman shock; type: in vivo, guinea pig; details: test compound 3 mg/kg before intravenous hemolysin; individual male guinea pigs; control died at 278, 318, 296 sec.
From the text: Quite different from other animals, guinea pig has on the surface of its organs a specific antigen called Forssman antigen which specifically reacts with the antibody of sheep erythrocyte. Forssman shock is based on the above principle and is a shock caused by the administration of antibody of sheep erythrocyte to a guinea pig. The Forssman shock was investigated in detail by many researches and it was definitely shown that this shock is a model case where the complement plays the principal part and that the shock is associated with a classical pathway in which the complement system is activated progressively starting from C1. Since the participation of complement in autoimmune diseases has been established, the Forssman shock can be said to be useful means for testing a drug for autoimmune diseases. A drug effective for the treatment of Forssman shock is useful as a drug of autoimmune diseases. [Anti-trypsin, anti-plasmin, anti-kallikrein and anti-thrombin activities]
The experiment was performed according to the method of I. G. Offerness et al. [Biochem. Pharmacol., 27 (14), 1873-1878 (1978)]. Male Hartlay guinea pig of about 300 g in body weight was used. Each guinea pig of the control group was administered intravenously with hemolysin (minimum dose to cause the shock) (commercial hemolysin, 5,000 U as assayed by the method of Ogata) and the time elapsed until death was observed. […]

[7] = molecular target: Plasmin (Homo sapiens, UniProt P00747); experiment: Anti-plasmin activity (hydrolysis of TAME); type: biochemical
Chain of Plasmin (P00747 581-810 limits assumed, species assumed): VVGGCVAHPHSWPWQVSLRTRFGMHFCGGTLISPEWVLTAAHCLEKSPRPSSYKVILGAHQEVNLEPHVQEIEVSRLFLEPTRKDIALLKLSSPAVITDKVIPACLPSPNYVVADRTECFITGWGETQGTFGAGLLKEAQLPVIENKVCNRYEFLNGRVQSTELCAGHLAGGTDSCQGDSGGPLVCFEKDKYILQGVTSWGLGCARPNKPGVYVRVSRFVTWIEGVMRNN
Chain of Plasmin (P00747 97-580 partner limits assumed, species assumed): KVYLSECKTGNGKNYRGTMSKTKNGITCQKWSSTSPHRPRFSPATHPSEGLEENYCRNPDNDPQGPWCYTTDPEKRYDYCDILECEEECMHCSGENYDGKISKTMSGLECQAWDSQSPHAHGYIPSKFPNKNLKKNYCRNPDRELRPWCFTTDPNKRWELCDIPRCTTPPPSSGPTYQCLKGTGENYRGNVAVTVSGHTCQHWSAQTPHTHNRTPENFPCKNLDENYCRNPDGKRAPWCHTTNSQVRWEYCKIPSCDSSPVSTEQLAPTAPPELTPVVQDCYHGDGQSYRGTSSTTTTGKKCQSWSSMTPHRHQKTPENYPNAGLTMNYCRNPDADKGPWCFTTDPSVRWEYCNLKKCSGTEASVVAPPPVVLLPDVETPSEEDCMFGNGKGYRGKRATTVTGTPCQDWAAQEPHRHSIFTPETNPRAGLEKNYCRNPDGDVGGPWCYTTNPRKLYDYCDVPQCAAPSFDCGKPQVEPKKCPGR
Description: The anti-trypsin, anti-plasmin, anti-kallikrein and anti-thrombin activities were determined according to the method of Muramatsu et al. [M. Muramatus, T. Onishi, S. Makino, Y. Hayashi and S. Fujii, J. of Biochem., 58, 214 (1965)]. […] The compound No. corresponds to the compound number shown in Examples.

[8] = molecular target: T3, C1r (Homo sapiens, UniProt P00736); experiment: biochemical; details: molar concentration inhibiting 50% of AAME hydrolysis; read-out: ID50 C1r (Anti-C1 activity)
T3 sequence (P00736 464-705 limits assumed): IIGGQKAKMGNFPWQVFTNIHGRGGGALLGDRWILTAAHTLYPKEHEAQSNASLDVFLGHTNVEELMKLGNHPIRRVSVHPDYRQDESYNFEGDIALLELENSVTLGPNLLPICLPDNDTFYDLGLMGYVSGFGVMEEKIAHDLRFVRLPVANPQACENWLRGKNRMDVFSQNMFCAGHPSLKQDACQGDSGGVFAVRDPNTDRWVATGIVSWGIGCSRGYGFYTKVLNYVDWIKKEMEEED
T3 sequence (P00736 18-463 partner limits assumed): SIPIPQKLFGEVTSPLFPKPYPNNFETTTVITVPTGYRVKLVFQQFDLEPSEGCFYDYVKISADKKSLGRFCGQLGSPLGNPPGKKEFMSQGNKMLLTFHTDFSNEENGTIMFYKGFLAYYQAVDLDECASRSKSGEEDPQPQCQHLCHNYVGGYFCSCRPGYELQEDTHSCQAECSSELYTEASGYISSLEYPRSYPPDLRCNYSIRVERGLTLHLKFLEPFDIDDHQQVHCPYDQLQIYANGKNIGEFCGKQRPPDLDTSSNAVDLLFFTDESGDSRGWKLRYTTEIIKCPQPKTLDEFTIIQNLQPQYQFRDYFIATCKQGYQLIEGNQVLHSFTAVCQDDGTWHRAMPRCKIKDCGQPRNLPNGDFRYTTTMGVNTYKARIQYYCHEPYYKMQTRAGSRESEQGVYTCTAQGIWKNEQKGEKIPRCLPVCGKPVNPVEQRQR

[9] = Median lethal dose (LD50); details: in vivo, mouse

N=C(N)NCc1ccc(C(=O)Oc2ccc3cc(C(=N)N)ccc3c2)o1 [Compound No. 1, 6-amidino-2-naphthyl 5-guanidinomethyl-furan-2-carboxylate]
Inhibition of complement mediated hemolysis (%) ([1]; 1 × 10^-5): 100% | Inhibition of complement mediated hemolysis (%) ([1]; 1 × 10^-6): 99% | Inhibition of complement mediated hemolysis (%) ([1]; 1 × 10^-7): 75% | pIC50 [2]: 5.52 | pIC50 [3]: 5.30 | inhibition at 10 µM ([4]; figure in parentheses, at 1×10^-5 M, TAME, read-out: percentage inhibition of trypsin): 35% | inhibition at 10 µM ([5]; figure in parentheses, at 1×10^-5 M, TAME, read-out: percentage inhibition of thrombin): 22% | time elapsed until death (survival) in Forssman shock [6]: Survival | inhibition at 10 µM ([7]; figure in parentheses, at 1×10^-5 M, TAME, read-out: percentage inhibition of plasmin): 15% | pIC50 [8]: 5.70 | LD50 ([9]; ip, I.P.): 100 mg/kg | LD50 ([9]; po, P.O.): 2000 mg/kg

N=C(N)c1ccc2cc(OC(=O)c3ccc(CN)s3)ccc2c1 [Compound No. 31, 6-amidino-2-naphthyl 5-aminomethyl-thiophene-2-carboxylate]
Inhibition of complement mediated hemolysis (%) ([1]; 1 × 10^-5): 100% | Inhibition of complement mediated hemolysis (%) ([1]; 1 × 10^-6): 98% | Inhibition of complement mediated hemolysis (%) ([1]; 1 × 10^-7): 97% | pIC50 [2]: 6.52 | pIC50 [3]: 6.40 | pIC50 ([4]; molar concentration inhibiting 50% of TAME hydrolysis, read-out: ID50 trypsin): 7.70 | pIC50 ([5]; molar concentration inhibiting 50% of TAME hydrolysis, read-out: ID50 thrombin): 6.00 | time elapsed until death (survival) in Forssman shock [6]: Survival | pIC50 ([7]; molar concentration inhibiting 50% of TAME hydrolysis, read-out: ID50 plasmin): 6.40 | pIC50 [8]: 6.70 | LD50 ([9]; ip, I.P.): 200 mg/kg | LD50 ([9]; po, P.O.): 2500 mg/kg
